Patent publication US5434136A, “Treatment of motility disorders with a GNRH analog” (priority 1992, dated 1995)

Columns and labels:
[1] = system: migrating motor complexes, jejunum; test: Leuprolide acetate effects on migrating motor complexes in rats; type: in vivo, female Wistar rats; details: for Migrating Motor Complexes, L-Fasted / Migrating Motor Complexes, L-Fed: mean ± SEM
Description: Eleven female Wistar rats weighing between 175 and 250 g were each implanted with four bipolar Ag/AgCL electrodes (the preparation of which is described in: Mathias, Am. J. Physiology, 249:[…]-[…], 1981). The electrodes were sewn 5 cm from the Ligament of Trietz and 5 cm apart, onto the jejunal serosa. The number of migrating myoelectric complexes was recorded using a R-612 Dynograph (Sensor-Medics, Anaheim, Calif.). Rats were fasted for 36 hours prior to recording and feeding (no food, liberal water), and were housed in special cages to remove feces. After 36 hours of fasting, Migrating Motor Complexes (MMC) were recorded at a sensitivity of 0.2 mV/cm, 2.5 mm/sec paper speed, and a Time Constant of 1 for a duration of 2 to 4 hours. Immediately following the fasted recording session, the rats were fed 2 biscuits of Purina rat chow with simultaneous recording during feeding and continued for 4 hours. This procedure was followed for 2 to 4 recording sessions prior to the treatment with leuprolide acetate (Controls). Leuprolide acetate was then administered daily, in the morning, subcutaneously in the hind limb at a dose ranging from 2 to 40 ug/100 g body weight. After a period of at least 24 hours post treatment with leuprolide, the fasting/fed recording sessions were begun as described for the controls to obtain recordings through 2 to 4 sessions.

[2] = system: functional bowel disease (GMD, IIHVN, Roux-en-Y Syndrome); test: Treatment of five patients with leuprolide acetate: symptoms; type: in vivo, human
Source text: Patients: Four of the five patients tested were women with functional bowel disease: two with gastrointestinal motor dysfunction (GMD), and two with idiopathic intestinal hollow visceral myopathy/neuropathy (IIHVN). The fifth patient had Roux-en-Y Syndrome. All patients had severe, incapacitating symptoms of abdominal pain, nausea, and intermittent vomiting. All had made frequent visits to emergency rooms, had seen many physicians, and undergone multiple tests and surgical procedures, and were unable to maintain their jobs or quality of life. They had been treated with many different drugs, including experimental drugs by protocol. They had difficulty in maintaining body weight, because their symptoms were worsened by eating. The symptoms of the two patients with GMD were abdominal pain located in the right upper quadrant and epigastrium, daily nausea, and intermittent vomiting exacerbated by eating and by the luteal phase of the menstrual cycle. The two patients with IIHVN had abdominal pain, nausea, and intermittent vomiting, and also had urinary tract involvement consisting of pain and a decrease in urination. The fifth patient had Roux-en-Y syndrome (defined as epigastric-to-right-upper-quadrant pain, nausea, and vomiting increased by eating) after surgical construction of a gastro-jejunal Roux-en-Y anastomosis. The mean duration of these symptoms was eight years (Table 1). All subjects had undergone extensive blood testing, several upper gastrointestinal x-ray series, barium enemas, esophagogastroduodenoscopy, endoscopic retrograde cholangiopancreatography, gastric emptying tests with radiolabeled meal, ultrasound of the abdomen, computerized axial tomography of the abdomen, and many other tests. The results of all tests were normal, except for prolonged gastric emptying in the patient with the Roux-en-Y Syndrome. Because of their intractable clinical problem, these patients were included in the test protocol with leuprolide acetate. Protocol: The symptoms of each patient were first assessed, and their tests evaluated. Each patient kept a daily symptom diary. Leuprolide acetate was obtained by prescription as Lupron (TAP pharmaceuticals, Abbott Labs, North Chicago, Ill.). One multi-use vial of Lupron comprised of […] Leuprolide Acetate. A daily dose of 0.5 mg ([…]) was self-administered by subcutaneous injection, for a period of three months. Each patient was examined at 0, 1 and 3 months of treatment. After the third month, leuprolide was continued as previously, and estrogen (0.625 mg orally) and calcium (1000 mg orally) were also administered. At the end of the sixth month, a two week withdrawal period from leuprolide acetate ensued. During this period a 10 mg oral dose of progesterone was given to pre-menopausal patients, to assess recurrence of symptoms and to induce menses. Post-menopausal women were not treated with progesterone during the two week withdrawal period. This procedure was then continued for an additional six months, with drug withdrawal and progesterone given every three months to induce a menstrual cycle. Serum estradiol, progesterone, FSH, and LH were quantitated by radioimmunoassay prior to the initiation of leuprolide treatment, and at three months post treatment initiation.

[3] = Patient 4 (IIHVN), 0.5 mg daily s.c.
[4] = Patient 5 (Roux-en-Y), 0.5 mg daily s.c.

With CCNC(=O)[C@@H]1CCCN1C(=O)[C@H](CCCNC(=N)N)NC(=O)[C@H](CC(C)C)NC(=O)[C@@H](CC(C)C)NC(=O)[C@H](Cc1ccc(O)cc1)NC(=O)[C@H](CO)NC(=O)[C@H](Cc1c[nH]c2ccccc12)NC(=O)[C@H](Cc1c[nH]cn1)NC(=O)[C@@H]1CCC(=O)N1 [Leuprolide acetate, leuprolide acetate] the “Migrating Motor Complexes, L-Fasted” value ([1]; 2 μg/100 g body weight s.c. daily, control fasted 4.69 ± 0.24) was 4.60 ± 0.12 MMC/hour, the “Migrating Motor Complexes, L-Fed” value ([1]; 2 μg/100 g body weight s.c. daily, control fed 2.60 ± 0.27) was 4.83 ± 0.65 MMC/hour and the “Migrating Motor Complexes, L-Fasted” value ([1]; 20 μg/100 g body weight s.c. daily, control fasted 4.43 ± 0.25) was 5.41 ± 0.17 MMC/hour. For the same compound, the “Migrating Motor Complexes, L-Fed” value ([1]; 20 μg/100 g body weight s.c. daily, control fed 1.40 ± 0.48) was 4.11 ± 0.22 MMC/hour, the “Migrating Motor Complexes, L-Fasted” value ([1]; 40 μg/100 g body weight s.c. daily, control fasted 4.75 ± 0.48) was 4.48 ± 0.12 MMC/hour and the “Migrating Motor Complexes, L-Fed” value ([1]; 40 μg/100 g body weight s.c. daily, control fed 2.33 ± 0.33) was 3.45 ± 0.25 MMC/hour. For the same compound, the “Dose at which the fed state was replaced by cycling MMCs (as little as)” value ([1]; fed rats) was 2 μg/100 g body weight, the “Constipation: after leuprolide acetate” value ([2]; Patient 1, 0.5 mg daily s.c.) was “Daily formed stools” and the “Intermittent vomiting: after leuprolide acetate” value ([2]; Patient 1, 0.5 mg daily s.c.) was “Abolished”. The “Nausea, daily: after leuprolide acetate” value ([2]; Patient 1, 0.5 mg daily s.c.) was “Decreased considerably”, the “Pain, RUQ, epigastrium, BLQ: after leuprolide acetate” value ([2]; Patient 1, 0.5 mg daily s.c.) was “Abolished” and the “Constipation, intermittent: after leuprolide acetate” value ([2]; Patient 2, 0.5 mg daily s.c.) was “Daily formed stools”. For the same compound, the “Epigastric to RUQ pain: after leuprolide acetate” value (shortened to “Epigastric to RUQ pain”) ([2]; Patient 2, 0.5 mg daily s.c.) was “Abolished”, the “Nausea, daily: after leuprolide acetate” value ([2]; Patient 2, 0.5 mg daily s.c.) was “Abolished” and the “Bilateral lower quadrant pain: after leuprolide acetate” value ([2]; Patient 3 (IIHVN)) was “Abolished”. The “Bowel and bladder function after therapy” value ([2]; Patient 3 (IIHVN)) was “normal bowel and bladder function”, the “Epigastric to RUQ pain” value ([2]; Patient 3 (IIHVN)) was “Decreased considerably” and the “Nausea and vomiting after therapy” value ([2]; Patient 3 (IIHVN)) was “subsided”. The “Nausea, daily: after leuprolide acetate” value ([2]; Patient 3 (IIHVN)) was “Abolished”, the “Obstipation: after leuprolide acetate” value ([2]; Patient 3 (IIHVN)) was “Daily formed stools” and the “Pain on urination: after leuprolide acetate” value ([2]; Patient 3 (IIHVN)) was “Abolished”. For the same compound, the “Remaining abdominal pain under therapy” value ([2]; Patient 3 (IIHVN)) was “mild and intermittent abdominal pain”, the Overall response ([2]; Patient 3 (IIHVN), total abdominal hysterectomy and bilateral salpingo-oophorectomy) was “responded dramatically” and the Overall outcome ([2]; Patient 4 (IIHVN)) was “symptom-free”. For the same compound, the “Constipation after ovulation: after leuprolide acetate” value [2, 3] was “Daily formed stools”, the “Deep boring pain in lower abdomen and rectum: after leuprolide acetate” value [2, 3] was “Abolished” and the “Urinary difficulty after ovulation: after leuprolide acetate” value [2, 3] was “normal urination”. For the same compound, the “Urination frequency after leuprolide acetate” value [2, 3] was 4 to 6 day⁻¹, the Overall outcome ([2]; Patient 5 (Roux-en-Y)) was “symptom-free” and the “Diarrhea: after leuprolide acetate” value [2, 4] was “Daily formed stools”. The “Epigastric to RUQ pain” value [2, 4] was “Abolished”, the “Intermittent vomiting: after leuprolide acetate” value [2, 4] was “Abolished” and the “Nausea, daily: after leuprolide acetate” value [2, 4] was “Abolished”. For the same compound, the “Worsened by eating: after leuprolide acetate” value [2, 4] was “Abolished”, the Body weight gained ([2]; Patient 5 (Roux-en-Y), from 96 to 131 pounds) was 35 pounds and the “Symptoms after leuprolide treatment was stopped and a progesterone challenge given” value ([2]; all subjects of Example 1, two week withdrawal) was “recurrent symptoms within three to five days”. The “Debilitating symptoms of patients with Motility Disorders (conclusion of Example 1)” value ([2]; human, in vivo) was “successfully reduces or abolishes” and the “Overall outcome after treatment” value ([2]; patients with GMD (Patients 1 and 2)) was “symptom-free”.
